{"source": "patent US20230381210A1", "about": "“COMPOSITION FOR PREVENTION, AMELIORATION, OR TREATMENT OF HYPERSENSITIVITY IMMUNE DISEASE CONTAINING GALACTOSE” (Quorum Bio Co., Ltd., priority 2020, published 2023)", "format_in_all_cases": "in vivo, BALB/c mice", "key": {"[1]": {"tested_on": "DNCB-induced atopic dermatitis mouse model", "assay": "Visual confirmation of skin lesions in DNCB-induced atopic dermatitis mouse model", "conditions": "oral 100 or 200 mg/kg daily (G5, G6) vs negative control (G3, PBS); FIG. 2, n=2 per group", "description": "(§1) An animal experiment in the following example was performed in accordance with the regulations set forth by Chonnam National University IACUC in an environment maintained at 50±5% humidity and 24˜26° C. temperature. 7-week-old male BALB/c mice (Damool Science Co., Ltd.) bred as a test animal were used, and after being acclimatized in a laboratory environment for one week while supplying enough feed and water, they were used in the experiment. Non-allergenic, dust-free, non-toxic, absorbent and pathogen-free bedding was used, and the cage was changed once a week to maintain a clean environment, and water was freely supplied with a water bottle. Galactose was pre-administered for 2 weeks from the period when the prepared mice were 8-week-old. Pre-administration was performed by oral administration once a day for 2 weeks, and the dose of galactose was 100 mg/kg or 200 mg/kg, respectively. As a control group, mice administered (orally) with PBS for the same period were prepared. After 2 weeks of pre-administration, the hairs on the mouse head and back of the mice were removed using a clipper and depilatory cream. […] On the day 16 after the first DNCB application (just before necropsy), ear thickness and clinical symptoms of the mice were measured. […]"}, "[2]": {"tested_on": "DNCB-induced atopic dermatitis mouse model", "assay": "Ear thickness measurement in DNCB-induced atopic dermatitis mouse model", "conditions": "oral 100 or 200 mg/kg daily (G5, G6); FIG. 3", "description": "as §1, with “respectively.” for “respectively. As a control group, mice administered (orally) with PBS for the same period were prepared. After 2 weeks of pre-administration, the hairs on the mouse head and back of the mice were removed using a clipper and depilatory cream.”, “measured. The mice prepared in Reference example 1 were evaluated for clinical symptoms (rubefaction, keratin formation (dryness degree), crust formation), and ear thickness was measured and then recorded three times a week (Monday, Wednesday, Friday). Ear thickness was measured three times a week using Caliper (R12-1A, Ozaki, Tokyo, Japan).” for “measured.”"}, "[3]": {"tested_on": "DNCB-induced atopic dermatitis mouse model", "assay": "Clinical scoring (rubefaction, keratin formation, crust formation) in DNCB-induced atopic dermatitis mouse model", "conditions": "oral 100 or 200 mg/kg daily (G5, G6) vs negative control (G3); FIG. 4", "description": "An animal experiment in the following example was performed in accordance with the regulations set forth by Chonnam National University IACUC in an environment maintained at 50±5% humidity and 24˜26° C. temperature. 7-week-old male BALB/c mice (Damool Science Co., Ltd.) bred as a test animal were used, and after being acclimatized in a laboratory environment for one week while supplying enough feed and water, they were used in the experiment. Non-allergenic, dust-free, non-toxic, absorbent and pathogen-free bedding was used, and the cage was changed once a week to maintain a clean environment, and water was freely supplied with a water bottle. […] On the day 16 after the first DNCB application (just before necropsy), ear thickness and clinical symptoms of the mice were measured. The mice prepared in Reference example 1 were evaluated for clinical symptoms (rubefaction, keratin formation (dryness degree), crust formation), and ear thickness was measured and then recorded three times a week (Monday, Wednesday, Friday). Ear thickness was measured three times a week using Caliper (R12-1A, Ozaki, Tokyo, Japan). […] For the mice prepared in Reference example 1, the clinical symptoms of the three items (rubefaction, keratin formation (dryness), crust formation) were scored on the basis of the following: 0 point; none, 1 point; mild, 2 points; moderate, 3 points; severe."}, "[4]": {"tested_on": "DNCB-induced atopic dermatitis mouse model", "assay": "Spleen and lymph node weight in DNCB-induced atopic dermatitis mouse model", "conditions": "oral 100 or 200 mg/kg daily (G5, G6) vs negative control (G3)", "description": "An animal experiment in the following example was performed in accordance with the regulations set forth by Chonnam National University IACUC in an environment maintained at 50±5% humidity and 24˜26° C. temperature. 7-week-old male BALB/c mice (Damool Science Co., Ltd.) bred as a test animal were used, and after being acclimatized in a laboratory environment for one week while supplying enough feed and water, they were used in the experiment. Non-allergenic, dust-free, non-toxic, absorbent and pathogen-free bedding was used, and the cage was changed once a week to maintain a clean environment, and water was freely supplied with a water bottle. Galactose was pre-administered for 2 weeks from the period when the prepared mice were 8-week-old. Pre-administration was performed by oral administration once a day for 2 weeks, and the dose of galactose was 100 mg/kg or 200 mg/kg, respectively. As a control group, mice administered (orally) with PBS for the same period were prepared. […] On the day 16 after the first DNCB application (just before necropsy), ear thickness and clinical symptoms of the mice were measured. […] In the present example, by measuring the weight of the spleen and armpit lymph nodes right before autopsy of the mice prepared in Reference example 1, a protective effect of atopic dermatitis was indirectly evaluated."}, "[5]": {"tested_on": "DNCB-induced atopic dermatitis mouse model", "assay": "Total IgE in serum by ELISA in DNCB-induced atopic dermatitis mouse model", "conditions": "oral 200 mg/kg daily (G6) vs negative control (G3); day 16; FIG. 7", "description": "An animal experiment in the following example was performed in accordance with the regulations set forth by Chonnam National University IACUC in an environment maintained at 50±5% humidity and 24˜26° C. temperature. 7-week-old male BALB/c mice (Damool Science Co., Ltd.) bred as a test animal were used, and after being acclimatized in a laboratory environment for one week while supplying enough feed and water, they were used in the experiment. Non-allergenic, dust-free, non-toxic, absorbent and pathogen-free bedding was used, and the cage was changed once a week to maintain a clean environment, and water was freely supplied with a water bottle. […] On the day 16 after the first DNCB application (just before necropsy), ear thickness and clinical symptoms of the mice were measured. At autopsy (16 days after first DNCB application), whole blood was collected, and then serum was separated and the IgE level in serum was measured by ELISA. As total IgE in serum was increased, when DNCB was treated to skin in the DNCB-induced atopic dermatitis mouse model, in the present example, by collecting blood right before autopsy of the mice prepared in Reference example 1 and then isolating serum and evaluating the total amount of IgE (ug/ml) in serum through ELISA method, a protective effect of atopic dermatitis was indirectly evaluated."}}, "data": [{"smiles": "O=C[C@H](O)[C@@H](O)[C@@H](O)[C@H](O)CO", "note": "[galactose]", "values": [{"measurement": "degree of crust formation", "setting": "[1]", "result": "reduced"}, {"measurement": "degree of skin rubefaction", "setting": "[1]", "result": "suppressed"}, {"measurement": "ear thickness", "setting": "[2]", "result": "significantly reduced"}, {"measurement": "score of clinical symptoms (sum of rubefaction, keratin formation, crust formation scores)", "setting": "[3]", "result": "significantly reduced"}, {"measurement": "weight of spleen", "setting": "[4]; FIG. 5", "result": "generally reduced"}, {"measurement": "weight of lymph nodes (armpit)", "setting": "[4]; FIG. 6", "result": "generally reduced"}, {"measurement": "total amount of IgE in serum", "setting": "[5]", "result": "significantly reduced"}]}]}
